These results are taken from publication PMC9273935, “Cooperative Binding of Substrate and Ions Drives Forward Cycling of the Human Creatine Transporter-1” (Frontiers in Physiology, 2022).

By IC50 is commonly meant the concentration that gives 50% inhibition. High values mean a need for much substance, low ones inhibition by little substance. Broadly, the EC50 is the concentration giving half of the maximal effect. A higher EC50 goes with lower potency in that assay.

Assay [1] has as its target T1, human creatine transporter-1 (CRT-1, SLC6A8), C-terminally YFP-tagged (Homo sapiens, UniProt P48029).
T1 construct: full-length cDNA in pEYFP-N1, C-terminal YFP tag, transiently expressed in HEK293 cells; oligomeric state not known
T1 sequence (P48029 1-635): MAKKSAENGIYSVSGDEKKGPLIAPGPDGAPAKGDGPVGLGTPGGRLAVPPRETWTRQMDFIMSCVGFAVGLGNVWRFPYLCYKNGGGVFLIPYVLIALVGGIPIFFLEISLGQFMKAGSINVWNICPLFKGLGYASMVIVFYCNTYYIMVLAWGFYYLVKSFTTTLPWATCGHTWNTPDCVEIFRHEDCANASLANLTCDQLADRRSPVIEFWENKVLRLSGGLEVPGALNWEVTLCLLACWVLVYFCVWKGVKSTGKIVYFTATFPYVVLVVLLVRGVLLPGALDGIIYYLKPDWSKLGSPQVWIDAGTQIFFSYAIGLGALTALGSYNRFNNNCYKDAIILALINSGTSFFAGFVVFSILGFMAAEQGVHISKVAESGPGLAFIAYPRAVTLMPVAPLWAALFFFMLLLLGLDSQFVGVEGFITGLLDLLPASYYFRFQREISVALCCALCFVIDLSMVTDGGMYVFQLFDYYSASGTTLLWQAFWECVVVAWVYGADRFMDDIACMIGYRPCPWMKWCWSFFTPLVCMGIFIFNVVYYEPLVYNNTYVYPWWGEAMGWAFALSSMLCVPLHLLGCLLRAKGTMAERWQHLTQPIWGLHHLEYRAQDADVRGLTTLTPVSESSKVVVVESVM
Nature of the assay: inhibition of [3H]creatine uptake in transfected HEK293 cells. The format is cell-based.

Assay [2] addresses T1, human creatine transporter-1 (CRT-1, SLC6A8), C-terminally YFP-tagged. Nature of the assay: whole-cell patch clamp, substrate-induced transport current in transfected HEK293 cells. It counts as cell-based. (In general: The patch-clamp technique gives a direct electrical read-out from membranes.)

The structures appear in SMILES notation.

On to `NC1=NCC(C(=O)O)CN1` (centres unmarked) [ATPCA, 2-amino-1,4,5,6-tetrahydropyrimidine-5-carboxylic acid], for which inhibition in assay [1] was half-maximal at 105 ± 6.7 µM (IC50). In assay [2], this compound showed an EC50 of 103 ± 4 µM.

Turning to `CN(CC(=O)O)C(=N)N` [creatine], in assay [1], the IC50 was found to be 48.4 ± 7 µM. Besides, the EC50 in assay [2] worked out at 34.8 ± 1.9 µM.

Compound `NC1=NCCN1CC(=O)O` [cyclocreatine] showed an IC50 in assay [1] of 167 ± 9.9 µM. This compound displayed an EC50 in assay [2] of 162 ± 8.49 µM.

Take `N=C(N)NCCC(=O)O` [β-guanidinopropionic acid]: in assay [1], the IC50 worked out at 18.8 ± 1.1 µM. Further, the EC50 in assay [2] came to 13.2 ± 0.73 µM.
